Biological target: AdeV
Assay: stopped-flow absorption kinetics (substrate-dependent formation of the […] nm chloro-ferryl feature), with freeze-quench Mössbauer and LC–MS turnover of purified enzyme
Type: biochemical, Actinomadura sp. ATCC 39365

Kd: ~28 mM
Structure (SMILES): Nc1ncnc2c1ncn2[C@H]1C[C@H](O)[C@@H](COP(=O)(O)O)O1 [compound 1, 2′-deoxyadenosine monophosphate]
